For this experiment, the target named is cathepsin L (Homo sapiens, UniProt P07711). The note with it: 50 µM peptide, citrate buffer 0.1 M pH 5.5, 1 mM EDTA, 2 mM DTT, 37 °C, overnight reaction, product formation by HPLC.

Data on 1 compound can be found in PMC5316865, “Covalent assembly of nanoparticles as a peptidase-degradable platform for molecular MRI” (Nature Communications, 2017).

SMILES strings stand for the structures. Peptide text beside a SMILES is read from it. * marks the point of attachment. Fmoc = O=C(OCC1c2ccccc2-c2ccccc21)*; Ahx = NCCCCCC(=O)O

Chain of cathepsin L (P07711 114-333, species assumed): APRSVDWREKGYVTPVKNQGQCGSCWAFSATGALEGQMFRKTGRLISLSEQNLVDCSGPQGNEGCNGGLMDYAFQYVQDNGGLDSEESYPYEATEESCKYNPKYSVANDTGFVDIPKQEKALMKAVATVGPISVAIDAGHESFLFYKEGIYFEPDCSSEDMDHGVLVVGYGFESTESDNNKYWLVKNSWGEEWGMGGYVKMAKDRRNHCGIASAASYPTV
Method: Activity assay of peptides with cathepsin L.
The reaction mixture was analysed by HPLC to
detect the formation of products from the overnight reaction.
Degradation of non-fluorescent peptides by cathepsin L
A solution of cathepsin L (20 µg/mL, 24 units/L) in citrate buffer 0.1 M pH 5.5, 1 mM EDTA, 2 mM
DTT was preactivated at 25 °C for 15 minutes. A stock solution of peptide 4, 5, 6 or 7 (125 µL, 25 nmol,
0.20 mM in DMSO) was diluted in 365 µL of the assay buffer to a final concentration of 50 µM and pre-
incubated at 37 °C. 10 µL of pre-activated cathepsin L was then added to the peptide solution and
incubated with mild shaking at 37 °C. Aliquots of 100 µL were withdrawn at 0 min, 1 hour and overnight.
Samples were flash-frozen on liquid nitrogen and were heated at 100 °C for 120 seconds prior to the

Regarding `CC(C)[C@H](NC(=O)[C@H](Cc1ccccc1)NC(=O)CCCCCNC(=O)CCCCCNC(=O)OCC1c2ccccc2-c2ccccc21)C(=O)N[C@@H](CCCNC(=N)N)C(=O)NCC(=O)N[C@@H](C)C(=O)NCC(=O)N[C@@H](CCC(=O)O)C(N)=O` [Peptide 3, Fmoc-Ahx-Ahx-FVRGAGE] ({Fmoc-Ahx-Ahx}-FVRGAGE-NH2), the “Activity assay of peptides with cathepsin L” value is “active”.
